These results are taken from patent US10364263B2, “Cyclic phosphates and cyclic phosphoramidates for the treatment of neurologic disorders” (Retrophin, Inc., priority 2015, dated 2019).

The subject of the test is PANK2 silenced human neuroblastoma IMR32 cells (PANK2−/−). Put plainly: Coenzyme A assay in PANK2 silenced cells (LC-MS quantification of free CoA). It counts as cell-based. Particulars: compound added twice (24 h + 24 h), relative to 0.1% DMSO controls. In outline:
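PANK2 shRNA-silenced IMR32 neuroblastoma cells were treated with compound (0.1% DMSO) for 24 h, then re-dosed with fresh compound for a further 24 h at 37 °C. TFA extracts of 1×10^6 cells were assayed for free CoA by LC-MS/MS (MRM 768.1→261.6/136.1). Results are given as fold change versus DMSO controls.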
As to `COC(=O)CCNC(=O)[C@@H]1OP(=O)(OCOC(=O)N[C@@H](CSC(=O)C(C)(C)C)C(=O)OCc2ccccc2)OCC1(C)C` (stereo partly drawn) [2-174, benzyl N-(((((4R)-4-((3-methoxy-3-oxopropyl)carbamoyl)-5,5-dimethyl-2-oxido-1,3,2-dioxaphosphinan-2-yl)oxy)methoxy)carbonyl)-S-pivaloyl-L-cysteinate], the “PANK2−/− CoA (Fold Increase): fold increase in Coenzyme A (CoA) levels relative to controls” value was 93.99 Fold Increase. `COC(=O)CCNC(=O)[C@@H]1O[P@](=O)(NCC2CCCO2)OCC1(C)C` (stereo partly drawn) [compound 119, methyl 3-((2S,4R)-5,5-dimethyl-2-oxido-2-(((tetrahydrofuran-2-yl)methyl)amino)-1,3,2-dioxaphosphinane-4-carboxamido)propanoate]: the “PANK2−/− CoA (Fold Increase): fold increase in Coenzyme A (CoA) levels relative to controls” value was found to be 1.44 Fold Increase. The same measure for `CCOC(=O)[C@H](CCc1ccccc1)NP1(=O)OCC(C)(C)[C@H](C(=O)NCCC(=O)OC)O1` (stereo partly drawn) [compound 6, ethyl (2S)-2-[[(4R)-4-[(3-methoxy-3-oxo-propyl)carbamoyl]-5,5-dimethyl-2-oxo-1,3,2-dioxaphosphinan-2-yl]amino]-4-phenyl-butanoate]: 1.11 Fold Increase; for `COC(=O)CCNC(=O)[C@@H]1O[P@@](=O)(N2CCOCC2)OCC1(C)C` [compound 136, methyl 3-((2R,4R)-5,5-dimethyl-2-morpholino-2-oxido-1,3,2-dioxaphosphinane-4-carboxamido)propanoate]: 1.93 Fold Increase. As to `COC(=O)CCNC(=O)[C@@H]1O[P@@](=O)(OCOC(=O)N[C@@H](CSC(=O)C(C)(C)C)C(=O)OCc2ccccc2)OCC1(C)C` [2-164, Benzyl N-(((((2S,4R)-4-((3-methoxy-3-oxopropyl)carbamoyl)-5,5-dimethyl-2-oxido-1,3,2-dioxaphosphinan-2-yl)oxy)methoxy)carbonyl)-S-pivaloyl-L-cysteinate], the “PANK2−/− CoA (Fold Increase): fold increase in Coenzyme A (CoA) levels relative to controls” value came to 101.86 Fold Increase. The result for `COC(=O)CCNC(=O)[C@@H]1O[P@](=O)(Oc2ccc(C(F)(F)F)cc2)OCC1(C)C` [2-197, methyl 3-((2R,4R)-5,5-dimethyl-2-oxido-2-(4-(trifluoromethyl)phenoxy)-1,3,2-dioxaphosphinane-4-carboxamido)propanoate] reads 101.95 Fold Increase.

With `COC(=O)CCNC(=O)[C@@H]1O[P@@](=O)(OCOC(=O)c2scnc2C(C)(C)C)OCC1(C)C` [2-192, (((2S,4R)-4-((3-methoxy-3-oxopropyl)carbamoyl)-5,5-dimethyl-2-oxido-1,3,2-dioxaphosphinan-2-yl)oxy)methyl 4-(tert-butyl)thiazole-5-carboxylate], the “PANK2−/− CoA (Fold Increase): fold increase in Coenzyme A (CoA) levels relative to controls” value is on record as 2.52 Fold Increase. The result for `CC(C)(C)C(=O)OCO[P@@]1(=O)OCC(C)(C)[C@H](C(=O)NCCC(=O)OCCC#N)O1` (single isomer, unassigned) [Compound No. 77] reads 93.86 Fold Increase; that for `COC(=O)CCNC(=O)[C@@H]1O[P@](=O)(OCOC(=O)c2cc(C(C)(C)C)nn2C)OCC1(C)C` [2-170, (((2R,4R)-4-((3-methoxy-3-oxopropyl)carbamoyl)-5,5-dimethyl-2-oxido-1,3,2-dioxaphosphinan-2-yl)oxy)methyl 3-(tert-butyl)-1-methyl-1H-pyrazole-5-carboxylate], 82.88 Fold Increase; that for `COC(=O)CCNC(=O)[C@@H]1O[P@@](=O)(Oc2ccccc2C(=O)OC)OCC1(C)C` [2-117, methyl 2-(((2S,4R)-4-((3-methoxy-3-oxopropyl)carbamoyl)-5,5-dimethyl-2-oxido-1,3,2-dioxaphosphinan-2-yl)oxy)benzoate], 1.11 Fold Increase. With `COC(=O)CCNC(=O)[C@@H]1O[P@@](=O)(Oc2ccc(C[C@H](NC(=O)OC(C)(C)C)C(=O)OC)cc2)OCC1(C)C` (single isomer, unassigned) [2-204], the “PANK2−/− CoA (Fold Increase): fold increase in Coenzyme A (CoA) levels relative to controls” value amounted to 5.75 Fold Increase. The result for `COC(=O)CCNC(=O)[C@@H]1OP(=O)(OCOC(=O)c2ocnc2C)OCC1(C)C` (stereo partly drawn) [2-147, (((4R)-4-((3-methoxy-3-oxopropyl)carbamoyl)-5,5-dimethyl-2-oxido-1,3,2-dioxaphosphinan-2-yl)oxy)methyl 4-methyloxazole-5-carboxylate] reads 39.19 Fold Increase. The same measure for `COC(=O)CCNC(=O)[C@@H]1OP(=O)(OCOC(=O)c2ccnn2C)OCC1(C)C` (stereo partly drawn) [2-142, (((4R)-4-((3-methoxy-3-oxopropyl)carbamoyl)-5,5-dimethyl-2-oxido-1,3,2-dioxaphosphinan-2-yl)oxy)methyl 1-methyl-1H-pyrazole-5-carboxylate]: 58.1 Fold Increase; for `COC(=O)CCNC(=O)[C@@H]1OP(=O)(OCOC(=O)N[C@@H](CSC(=O)C(C)(C)C)C(=O)O)OCC1(C)C` (stereo partly drawn) [2-180, N-(((((4R)-4-((3-methoxy-3-oxopropyl)carbamoyl)-5,5-dimethyl-2-oxido-1,3,2-dioxaphosphinan-2-yl)oxy)methoxy)carbonyl)-S-pivaloyl-L-cysteine]: 26.8 Fold Increase. The same measure for `COC(=O)CCNC(=O)[C@@H]1OP(=O)(OCOC(=O)NCCSC(C)=O)OCC1(C)C` (stereo partly drawn) [2-136, methyl 3-((4R)-2-((((2-(acetylthio)ethyl)carbamoyl)oxy)methoxy)-5,5-dimethyl-2-oxido-1,3,2-dioxaphosphinane-4-carboxamido)propanoate]: 1.41 Fold Increase. As for `COC(=O)CCNC(=O)[C@@H]1O[P@](=O)(N2CCOCC2)OCC1(C)C` [compound 135, methyl 3-((2S,4R)-5,5-dimethyl-2-morpholino-2-oxido-1,3,2-dioxaphosphinane-4-carboxamido)propanoate], the “PANK2−/− CoA (Fold Increase): fold increase in Coenzyme A (CoA) levels relative to controls” value is reported as 1.3 Fold Increase. For `COC(=O)CCNC(=O)[C@@H]1OP(=O)(OCOC(=O)NC(C)(C)COC(C)=O)OCC1(C)C` (stereo partly drawn) [2-152, methyl 3-((4R)-2-((((l-acetoxy-2-methylpropan-2-yl)carbamoyl)oxy)methoxy)-5,5-dimethyl-2-oxido-1,3,2-dioxaphosphinane-4-carboxamido)propanoate], the “PANK2−/− CoA (Fold Increase): fold increase in Coenzyme A (CoA) levels relative to controls” value is 1.24 Fold Increase. Take `COC(=O)CCNC(=O)[C@@H]1O[P@@](=O)(Oc2ccc([N+](=O)[O-])cc2)OCC1(C)C` [2-121, methyl 3-((2S,4R)-5,5-dimethyl-2-(4-nitrophenoxy)-2-oxido-1,3,2-dioxaphosphinane-4-carboxamido)propanoate]: the “PANK2−/− CoA (Fold Increase): fold increase in Coenzyme A (CoA) levels relative to controls” value was 1.59 Fold Increase. The result for `COC(=O)CCNC(=O)[C@@H]1OP(=O)(OCOC(=O)NCCSC(=O)[C@@H](NC(=O)OCc2ccccc2)C(C)C)OCC1(C)C` (stereo partly drawn) [2-175, methyl 3-((4R)-2-(((S)-9-isopropyl-3,8,11-trioxo-13-phenyl-2,12-dioxa-7-thia-4,10-diazatridecyl)oxy)-5,5-dimethyl-2-oxido-1,3,2-dioxaphosphinane-4-carboxamido)propanoate] reads 9.31 Fold Increase; that for `CC(C)(C)OC(=O)CCNC(=O)[C@@H]1OP(=O)(O)OCC1(C)C` [Compound No. 2-111, tert-butyl 3-((4R)-2-hydroxy-5,5-dimethyl-2-oxido-1,3,2-dioxaphosphinane-4-carboxamido)propanoate], 1.16 Fold Increase. Regarding `COC(=O)CCNC(=O)[C@@H]1OP(=O)(OCOC(=O)NCCOC(=O)C(C)(C)C)OCC1(C)C` (stereo partly drawn) [2-183, 2-((((((4R)-4-((3-methoxy-3-oxopropyl)carbamoyl)-5,5-dimethyl-2-oxido-1,3,2-dioxaphosphinan-2-yl)oxy)methoxy)carbonyl)amino)ethyl pivalate], the “PANK2−/− CoA (Fold Increase): fold increase in Coenzyme A (CoA) levels relative to controls” value is 3.5 Fold Increase. The result for `COC(=O)CCNC(=O)[C@@H]1O[P@@](=O)(N2CCS(=O)(=O)CC2)OCC1(C)C` [compound 137, methyl 3-((2R,4R)-2-(1,1-dioxidothiomorpholino)-5,5-dimethyl-2-oxido-1,3,2-dioxaphosphinane-4-carboxamido) propanoate] reads 1.76 Fold Increase; that for `COC(=O)CCNC(=O)[C@@H]1O[P@@](=O)(OCOC(=O)c2scnc2C)OCC1(C)C` (single isomer, unassigned) [2-149], 24.48 Fold Increase; that for `COC(=O)[C@H](C)N[P@@]1(=O)OCC(C)(C)[C@H](C(=O)NCCC(=O)OCc2ccncc2)O1` (single isomer, unassigned) [compound 18, methyl ((2R,4R)-5,5-dimethyl-2-oxido-4-((3-oxo-3-(pyridin-4-ylmethoxy)propyl)carbamoyl)-1,3,2-dioxaphosphinan-2-yl)-L-alaninate or methyl ((2S,4R)-5,5-dimethyl-2-oxido-4-((3-oxo-3-(pyridin-4-ylmethoxy)propyl)carbamoyl)-1,3,2-dioxaphosphinan-2-yl)-L-alaninate], 2.06 Fold Increase. The same measure for `COC(=O)CCNC(=O)[C@@H]1O[P@](=O)(OC(C)OC(=O)C(C)(C)C)OCC1(C)C` (stereo partly drawn) [compound 102, 1-(((2R,4R)-4-((3-methoxy-3-oxopropyl)carbamoyl)-5,5-dimethyl-2-oxido-1,3,2-dioxaphosphinan-2-yl)oxy)ethyl pivalate]: 2.5 Fold Increase; for `COC(=O)CCNC(=O)[C@@H]1O[P@](=O)(Oc2ccc(S(F)(F)(F)(F)F)cc2)OCC1(C)C` (single isomer, unassigned) [Compound No. 2-125]: 34.02 Fold Increase.
